# Literature values in patent publication US20080019975A1, “Novel Regimens for Treating Diseases and Disorders” (BioAssets Development Corporation, priority 2006, published 2008).
# Tested on: sciatica patients
# Details: IV administration, blinded trial versus placebo saline infusion
substance,measurement,value
infliximab,difference between patients treated with the drug versus placebo saline infusion,failed to show a difference
